Reference: ChEMBL document CHEMBL4418913, “Modulation of K2P channels” (2018)
Blank lines part the entries; values can stand above or below the compound they belong to. Calls of active or inactive are those of the source. The rule behind the calls is not given here.

Columns and labels:
[1] = molecular target: Potassium voltage-gated channel subfamily KQT member 2 (Homo sapiens) (UniProt O43526); assay: Activation of Kv7.2 (unknown origin) expressed in Xenopus oocytes assessed as effect on channel currents by two-electrode voltage clamp assay; format: cell-based
Potassium voltage-gated channel subfamily KQT member 2 (Homo sapiens), sequence (O43526 whole entry): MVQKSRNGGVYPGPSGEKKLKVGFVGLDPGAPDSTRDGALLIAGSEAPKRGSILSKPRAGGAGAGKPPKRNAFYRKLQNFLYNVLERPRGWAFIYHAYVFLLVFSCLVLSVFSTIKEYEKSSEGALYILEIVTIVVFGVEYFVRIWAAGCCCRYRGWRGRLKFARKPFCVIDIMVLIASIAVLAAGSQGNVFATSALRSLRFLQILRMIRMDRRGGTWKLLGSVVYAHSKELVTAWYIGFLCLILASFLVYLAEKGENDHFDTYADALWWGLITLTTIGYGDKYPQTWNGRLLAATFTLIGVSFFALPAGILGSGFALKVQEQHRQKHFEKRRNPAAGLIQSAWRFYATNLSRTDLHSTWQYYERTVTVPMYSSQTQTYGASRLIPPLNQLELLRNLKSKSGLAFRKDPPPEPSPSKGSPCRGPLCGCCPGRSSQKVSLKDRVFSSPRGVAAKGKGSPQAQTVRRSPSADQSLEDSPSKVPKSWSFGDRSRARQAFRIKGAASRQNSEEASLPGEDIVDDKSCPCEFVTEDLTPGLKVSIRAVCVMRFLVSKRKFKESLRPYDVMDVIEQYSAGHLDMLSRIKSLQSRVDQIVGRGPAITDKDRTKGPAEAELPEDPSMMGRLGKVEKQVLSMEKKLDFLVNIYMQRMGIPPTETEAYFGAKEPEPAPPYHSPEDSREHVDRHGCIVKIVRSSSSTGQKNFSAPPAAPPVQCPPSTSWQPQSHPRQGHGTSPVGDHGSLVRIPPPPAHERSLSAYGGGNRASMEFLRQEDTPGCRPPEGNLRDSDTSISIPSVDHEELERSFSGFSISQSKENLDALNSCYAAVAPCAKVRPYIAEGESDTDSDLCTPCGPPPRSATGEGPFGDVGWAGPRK

[2] = molecular target: T1, Potassium channel subfamily K member 2 (Homo sapiens) (UniProt O95069); assay: Reversible modulatory activity at K2P2.1 (unknown origin) expressed in Xenopus oocytes assessed as effect on channel currents at 100 uM at -80 mV holding potential by two-electrode voltage clamp assay; format: cell-based
T1 sequence (whole entry): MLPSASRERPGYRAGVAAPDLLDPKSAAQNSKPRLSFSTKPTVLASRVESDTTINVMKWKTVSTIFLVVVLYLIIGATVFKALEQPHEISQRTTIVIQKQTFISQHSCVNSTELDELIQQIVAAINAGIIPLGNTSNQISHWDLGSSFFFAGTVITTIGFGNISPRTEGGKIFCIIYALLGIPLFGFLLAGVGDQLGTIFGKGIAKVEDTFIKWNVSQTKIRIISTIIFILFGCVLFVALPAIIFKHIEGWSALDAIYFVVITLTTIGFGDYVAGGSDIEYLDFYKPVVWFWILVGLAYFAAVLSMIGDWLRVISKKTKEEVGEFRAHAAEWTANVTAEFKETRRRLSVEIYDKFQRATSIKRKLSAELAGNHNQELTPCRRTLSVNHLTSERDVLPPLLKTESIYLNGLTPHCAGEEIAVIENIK

[3] = molecular target: T1, Potassium channel subfamily K member 2 (Homo sapiens); assay: Activation of K2P2.1 (unknown origin) expressed in Xenopus oocytes assessed as effect on channel currents at -80 mV holding potential by two-electrode voltage clamp assay relative to untreated control; format: cell-based
[4] = molecular target: T1, Potassium channel subfamily K member 2 (Homo sapiens); assay: Activation of K2P2.1 (unknown origin) expressed in Xenopus oocytes assessed as effect on channel currents at 400 uM by two-electrode voltage clamp assay; format: cell-based
[5] = molecular target: T2, Potassium channel subfamily K member 4 (Homo sapiens) (UniProt Q9NYG8); assay: Binding affinity to K2P4.1 (unknown origin) assessed as induction of protein cross linking and labelling at 1 to 200 uM following 254 nm UV light irradiation for 30 secs by SDS-PAGE analysis
T2 sequence (whole entry): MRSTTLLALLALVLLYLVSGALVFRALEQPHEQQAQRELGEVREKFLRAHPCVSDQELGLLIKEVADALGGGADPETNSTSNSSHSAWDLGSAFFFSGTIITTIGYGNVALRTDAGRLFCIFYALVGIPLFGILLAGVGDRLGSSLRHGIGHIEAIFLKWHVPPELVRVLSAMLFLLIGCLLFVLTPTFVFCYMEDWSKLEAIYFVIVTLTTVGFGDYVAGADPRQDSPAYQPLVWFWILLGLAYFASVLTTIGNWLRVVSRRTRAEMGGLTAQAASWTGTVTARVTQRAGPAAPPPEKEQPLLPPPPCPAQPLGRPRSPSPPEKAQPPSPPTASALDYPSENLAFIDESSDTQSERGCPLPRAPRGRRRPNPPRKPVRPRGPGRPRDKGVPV

[6] = molecular target: T1, Potassium channel subfamily K member 2 (Homo sapiens); assay: Inhibition of K2P2.1 (unknown origin) expressed in Xenopus oocytes assessed as effect on channel currents at 100 to 500 uM at 40 mV holding potential by two-electrode voltage clamp assay; format: cell-based
[7] = molecular target: T1, Potassium channel subfamily K member 2 (Homo sapiens); assay: Reversible activation of K2P2.1 (unknown origin) expressed in HEK293T cells assessed as effect on channel currents at 5 to 20 uM by […] assay; format: cell-based
[8] = system: Potassium channel subfamily K member 2 (Homo sapiens), O95069 [UNDEFINED MUTATION]; assay: Activation of K2P2.1 W275S mutant (unknown origin) expressed in Xenopus oocytes assessed as effect on channel currents at 50 uM by two-electrode voltage clamp assay; format: cell-based
Homo sapiens = organism: Homo sapiens; assay: Activation of K2P2.1 triple Glycine mutant (unknown origin) expressed in Xenopus oocytes assessed as effect on channel currents at 50 uM by two-electrode voltage clamp assay; format: cell-based
[9] = molecular target: T1, Potassium channel subfamily K member 2 (Homo sapiens); assay: Activation of K2P2.1 (unknown origin) expressed in HEK293T cells inside out excised patches assessed as effect on channel currents at 20 uM at -40 mV holding potential by patch clamp assay relative to untreated control; format: cell-based
[10] = molecular target: T1, Potassium channel subfamily K member 2 (Homo sapiens); assay: Reversible activation of K2P2.1 (unknown origin) expressed in HEK293T cells assessed as effect on channel currents at 10 uM at -80 mV holding potential by whole cell patch clamp assay relative to untreated control; format: cell-based
[11] = system: Potassium channel subfamily K member 2 (Homo sapiens), O95069 [UNDEFINED MUTATION]; assay: Activation of K2P2.1 G137I mutant (unknown origin) expressed in Xenopus oocytes assessed as effect on channel currents at 50 uM by two-electrode voltage clamp assay; format: cell-based
[12] = molecular target: T1, Potassium channel subfamily K member 2 (Homo sapiens); assay: Reversible activation of K2P2.1 (unknown origin) expressed in Xenopus oocytes assessed as effect on channel currents at 50 uM at -80 mV holding potential by two-electrode voltage clamp assay; format: cell-based
[13] = molecular target: T1, Potassium channel subfamily K member 2 (Homo sapiens); assay: Activation of K2P2.1 (unknown origin) expressed in Xenopus oocytes assessed as effect on channel currents at 50 uM in presence of 90 mM [K+]o-induced extracellular C-type gate stabilization by two-electrode voltage clamp assay; format: cell-based
[14] = molecular target: T1, Potassium channel subfamily K member 2 (Homo sapiens); assay: Activation of K2P2.1 (unknown origin) expressed in HEK293T cells outside out excised patches assessed as effect on channel currents at 20 uM at -40 mV holding potential by […] patch clamp assay relative to untreated control; format: cell-based

Compound: C#Cc1ccc(S(=O)(=O)NC(=O)CCN2c3ccc(N=[N+]=[N-])cc3C3(CCCCC3)c3cc(N=[N+]=[N-])ccc32)cc1
Activity [5]: Active

Compound: O=C(O)COc1ccc(C23CC4CC(CC(C4)C2)C3)cc1
Activity [4]: Active

Compound: O=C1S/C(=C/c2ccc(F)cc2)C(=O)N1CN1CCCCC1
Activity [4]: Active

Compound: CC1(C)c2cc(Cl)ccc2N(CCc2nnn[nH]2)c2ccc(Cl)cc21
Activity [7]: Active
Activity [8]: inactive
Activity (Homo sapiens): inactive
Activity [9]: Active
Activity [10]: Active
Activity [11]: inactive
Activity [12]: Active
Activity [13]: inactive
Activity [14]: Active

Further lines, results first:

Activity [1]: inactive
Activity [2]: Active
Emax [3]: 11
Activity [4]: Active
Compound: O=C(O)CCn1c2ccc(Cl)cc2c2cc(Cl)ccc21

Activity [2]: Active
Compound: Cc1cccc(-n2ncc3c(NCCc4ccccc4)ncnc32)c1

inhibition [6]: Active
Compound: Cc1sc(-n2cccc2)c(C(=O)NCc2ccc(Cl)cc2)c1C
